{
  "source": "patent US20130203649A1",
  "about": "“INHIBITORS OF TLR SIGNALING BY TARGETING TIR DOMAIN INTERFACES” (UNIVERSITY OF MARYLAND, BALTIMORE, priority 2012, published 2013)",
  "key": {"TLR4": {"test_system": "TLR4", "test": "Inhibition of TLR4 signaling in thioglycollate-elicited mouse macrophages (effective concentration, overall inhibitory activity)", "assay_type": "cell-based", "conditions": "for Effective conc.: TLR4 pathway, thioglycollate-elicited mouse macrophages", "description": "C57BL/6J mice were obtained from The Jackson Laboratory (Bar Harbor, Me.). Primary peritoneal macrophages were obtained by peritoneal lavage 4 days after intraperitoneal injection (3 ml) of sterile 3% thioglycolate broth. Washed cells were resuspended in RPMI 1640 which contained 2% FBS, 1% penicillin:streptomycin and 2 mM L-glutamine. After plating, cells were incubated overnight at 37° C. and then washed with PBS to remove non-adherent cells. Cells were exposed to peptides 30 min before stimulation with a TLR agonist.\nTIRAP/Mal functions to facilitate MyD88 recruitment to the activated TLR4 and TLR2, presumably through a simultaneous interaction with receptor and MyD88 TIR domains. Therefore, multiple TIR:TIR interaction sites are expected in TIRAP TIR. The decoy peptide approach was used to obtain leads on the functional protein-protein interfaces within TIRAP/Mal, a TLR adapter protein. To this end, eleven TIRAP TIR-derived decoy peptides were designed to be structurally homologous to the TLR4 TIR-derived decoy peptides used previously (1), so that each peptide represents a non-fragmented patch of the TIRAP TIR surface, with the entire domain encompassed by the set of peptides. The TIRAP TIR-derived decoy peptides were synthesized in tandem with the cell-permeating sequence of Antennapedia homeodomain (21) and each peptide was tested for the ability to inhibit TLR4 and TLR2 signaling in primary mouse macrophages. Peptide sequences and the structural regions they represent are shown in reference (30).\nC57BL/6J mice were obtained from The Jackson Laboratory (BarHarbor, Me.). Harvesting, culturing, and stimulation of peritoneal macrophages were described in previous publications (1, 18, 19). Escherichia coli K235 LPS (34) was used at the final concentration of 100 ng/ml. The 2,3-bis(palmitoyloxy)-(2-RS)-propyl-N-palmitoyl-(R)-Cys-Ser-Lys4-OH (P3C) and S[2,3-bis(palmitoyloxy)-(2-RS)-propyl]-[R]-Cys-Ser-Lys4-OH (P2C) (EMC Microcollections, Tubingen, Germany) were used at 500 and 50 ng/ml, respectively. Oligonucleotide (ODN) 1668 and low m.w. polyinosinic-polycytidylic acid [poly(I:C)] in complex with LyoVec were obtained from InvivoGen; these agonists were used at 2.5 μM and 400 ng/ml, respectively."}, "C57BL/6J mice [1]": {"test_system": "C57BL/6J mice", "test": "In vivo efficiency of decoy peptides (Table 1; LPS challenge in mice)", "design": "species or system mouse", "description": "FIG. 4. Effect of select TRAP decoy peptides on TNF-α and IL-6 in blood following an ip LPS challenge. C57BL/6J mice were injected with TR5, TR6, or TR7 peptide or mock-treated 1 hour before injection of purified E. coli LPS. Peptides and LPS were injected to mice intraperitonealy 10 nmol or 1 μg per gram of animal weight, correspondingly.\n(§1) FIG. 10. […] (A-E) C57BL/6J mice were injected i.p. with purified Escherichia coli K235 LPS (1 μg/g) or PBS. Peptides (10 nmol/g of animal weight) were injected i.p. (A, B, D, E) or i.v. (C) 1 h before (A, B, and C) or 30 min after (D, E) i.p. injection of LPS. Data in panels A and D show plasma IL-6 and TNF-α levels measured 2 h after LPS challenge. Peptide TM8/9 was used as a non-inhibitory control peptide. Data represent the means±s.e.m. for 6-12 blood samples obtained in at least three independent experiments. *p<0.01. (F, G) C57BL/6J mice were challenged i.p. with a lethal LPS dose (17.5 μg/g). Peptides (10 nmol/g) were injected i.p. 1 h before LPS challenge. […] The statistical significance of changes in mortality and survival time was determined by the Mantel Cox log-rank test using GraphPad Prism software (Version 5.04). *p<0.01.\n(§2) Eight-week-old C57BL/6J mice were injected with 1 or 17.5 μg/g animal weight of E. coli K235 LPS i.p. Peptides reconstituted in PBS were administered i.p. or i.v. Control groups received equivalent volume of solvent (PBS). The blood samples were collected 1, 2, 4, and 8 h, or 2, 8, and 24 h after LPS challenge. The plasma samples were obtained and kept frozen until TNF-α and IL-6 were measured by ELISA. Survival of animals was monitored every 6-16 h after LPS challenge. All animal experiments were carried out with institutional approval."}, "[2]": {"test_system": "mouse peritoneal macrophages", "conditions": "3-h incubation; data not shown", "description": "A total of 5×10^4 mouse peritoneal macrophages was plated into 96-well tissue culture plates, incubated overnight, and treated with peptides for 3 h. After the treatment, cells were incubated with MTT at 0.5 mg/ml (Sigma-Aldrich) for 3 h. Fifty microliters DMSO was added to cells before reading OD at 540 nm."}, "C57BL/6J mice [3]": {"test_system": "C57BL/6J mice", "test": "Plasma TNF-α and IL-6 after sublethal LPS challenge in C57BL/6J mice", "assay_type": "in vivo, mouse", "description": "as §1, §2\nWe next studied whether peptides identified as inhibitory in in vitro tests are effective in vivo. C57BL/6J mice were challenged i.p. with a sublethal LPS dose (1 μg/g animal weight), and plasma TNF-α and IL-6 levels were monitored for 8 h after the challenge. In the first series of experiments, we injected 10 nmol/g TM4 or TM6 i.p. 1 h before LPS challenge. The 10 nmol/g dose corresponds to 38, 41, and 32 mg/kg TM4, TM6, and TM4-ΔC, respectively."}, "C57BL/6J mice [4]": {"test_system": "C57BL/6J mice", "test": "Survival after lethal LPS challenge in C57BL/6J mice", "assay_type": "in vivo, mouse", "conditions": "LPS 17.5 μg/g i.p.", "description": "as §1, §2\nWe next studied whether inhibitory peptides protect mice from a lethal LPS challenge. TR6, a previously described inhibitory peptide derived from the third helical region of TRAP (30), was also included in this study as an additional control. C57BL/6J mice were injected i.p. with 17.5 μg/g LPS. This dose induced 100% mortality in the control group (FIG. 10F). […] The peptide-treated survivors appeared active and healthy at the time the experiments were terminated, 7 d after injection of LPS."}, "MAPK (ERK, JNK, p38)": {"test_system": "MAPK (ERK, JNK, p38)", "test": "MAPK activation by peptide alone, macrophages without TLR agonist", "assay_type": "cell-based, mouse", "conditions": "peptide alone; data not shown", "description": "Neither TIRAP peptide activated ERK in cells incubated without a TLR agonist (not shown). […] The mechanism of this differential MAPK activation by select peptides, although interesting, is not understood at this time. Peptides TR9 and TR11 inhibited both ERK and JNK MAPKs (FIG. 1D). Peptide-induced inhibition of ERK persisted over a long period of time.\nWe next examined whether TRAM peptides inhibit the TLR4-mediated p38, ERK, and JNK MAPK activation. Murine macrophages pretreated with peptides for 30 min were challenged with LPS. Cell lysates were collected 30 min post-stimulation and analyzed for MAPK phosphorylation by Western analysis. Consistent with peptide effects on steady-state mRNA, both TM4 and TM6 inhibited activation of all three MAPKs (FIG. 5C). The inhibition of MAPKs by TM4 or TM6 was long lasting; it persisted for at least 1 h after LPS stimulation (data not shown). To characterize further the effects of TRAM peptides on MAPKs, murine macrophages were treated with TRAM peptides, but not challenged by LPS."}},
  "note": "Where “and” joins values, the source holds several entries; their conditions need not be identical. Equal values may be shown once. Entries after “also recorded” stand apart in the source; their conditions may differ. No end group written: not given here.",
  "data": [
    {"substance": "RQIKIWFQNRRMKWKKCLQDAIDHS [TF5-ΔC]", "values": [
      {"measurement": "Effective conc.", "setting": "TLR4", "value": 20, "unit": "µM"},
      {"measurement": "In vivo efficiency", "setting": "C57BL/6J mice [1]", "value": "Yes, i.p."}
    ]},
    {"substance": "RQIKIWFQNRRMKWKKENFLRDTWCNFQFY [TM6]", "values": [
      {"measurement": "Cell viability (MTT)", "setting": "[2]", "value": "Neither inhibitory peptide affected cell viability in a significant way"}
    ]},
    {"substance": "RQIKIWFQNRRMKWKKIVFAEMPCG [TM4-ΔC]", "values": [
      {"measurement": "Effective conc.", "setting": "TLR4", "value": 10, "unit": "µM"},
      {"measurement": "Inhibitory activity of modified TM4 peptides on TLR4-driven MAPK activation and cytokine mRNA (FIG. 8)", "setting": "TLR4; relative ranking among TM4 variants", "value": "close to that of TM4"},
      {"measurement": "In vivo efficiency", "setting": "C57BL/6J mice [1]", "value": "yes, i.p."},
      {"measurement": "Plasma TNF-α and IL-6", "setting": "C57BL/6J mice [3]; 10 nmol/g i.p. 30 min after LPS, 2 h after LPS or thereafter", "value": "markedly diminished"},
      {"measurement": "Circulating TNF-α and IL-6", "setting": "C57BL/6J mice [3]; 10 nmol/g i.p. 30 min after LPS, measured 1 h after LPS", "value": "did not affect"},
      {"measurement": "Circulating IL-6 and TNF-α levels", "setting": "C57BL/6J mice [3]; 10 nmol/g i.v., LPS i.p., 8-h observation", "value": "significantly lowered"},
      {"measurement": "Efficiency with respect to circulating IL-6 at 4- or 8-h time points", "setting": "C57BL/6J mice [3]; dose increased to 25 nmol/g", "value": "did not augment"},
      {"measurement": "LPS-induced systemic cytokine response in vivo", "setting": "C57BL/6J mice [3]; sublethal LPS 1 μg/g, peptide 10 nmol/g", "value": "strongly suppress; also recorded: effectively suppress"},
      {"measurement": "Survival after lethal LPS challenge", "setting": "C57BL/6J mice [4]; peptide 10 nmol/g i.p. 1 h before", "value": "rescued all animals and 10 of 10 and protect"},
      {"measurement": "Survival after lethal LPS challenge, therapeutic administration", "setting": "C57BL/6J mice [4]; peptide i.p. 3 h after LPS", "value": "Five of seven"}
    ]},
    {"substance": "RQIKIWFQNRRMKWKKIVFAEMPCGRLHLQ [TM4]", "values": [
      {"measurement": "Cell viability (MTT)", "setting": "[2]", "value": "Neither inhibitory peptide affected cell viability in a significant way"}
    ]},
    {"substance": "TM3: TRAM decoy peptide: Antennapedia sequence at N terminus of QNDFGIRPG (RQIKIWFQNRRMKWKKQNDFGIRPG)", "values": [
      {"measurement": "p38 and ERK MAPK activation without LPS stimulation", "setting": "MAPK (ERK, JNK, p38)", "value": "weakly activated"}
    ]}
  ]
}
